Measurements reported in patent US10913738B2 (BRISTOL-MYERS SQUIBB COMPANY, priority 2017, dated 2021).
Like-named read-outs stand apart in the source and are kept apart here.

Assays:
[1] = molecular target: T1, His-GST-TVMV-hRIPK1(1-324) (Homo sapiens, UniProt Q13546); experiment: RIPK1 HTRF Binding Assay
T1 construct: The coding region of human RIPK1(1-324) flanked by NdeI site at 5′ end; made in house; host or cells: Spodoptera frugiperda (Sf9) insect cells, baculovirus
T1 sequence (Q13546 1-324): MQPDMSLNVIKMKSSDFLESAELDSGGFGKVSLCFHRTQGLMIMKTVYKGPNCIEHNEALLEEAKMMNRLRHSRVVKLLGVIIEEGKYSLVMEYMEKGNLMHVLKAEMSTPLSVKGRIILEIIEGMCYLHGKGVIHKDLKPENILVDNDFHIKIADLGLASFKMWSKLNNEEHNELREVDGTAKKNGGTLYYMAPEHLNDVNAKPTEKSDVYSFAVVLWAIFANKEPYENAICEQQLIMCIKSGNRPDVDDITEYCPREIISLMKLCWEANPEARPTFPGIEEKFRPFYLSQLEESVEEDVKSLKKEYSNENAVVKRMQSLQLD
Procedure: The plate was incubated at rt for 1 h.
Cloning and Baculovirus Expression of RIPK1 Construct
Baculovirus was generated for the construct using the Bac-to-Bac baculovirus expression system (Invitrogen) according to the manufacturer's protocol. Briefly, recombinant bacmid was isolated from transformed DH10Bac E. coli competent cells (Invitrogen) and used to transfect Spodoptera frugiperda (Sf9) insect cells (Invitrogen). Baculovirus was harvested 72 hours post transfection and a virus stock was prepared by infecting fresh Sf9 cells at a 1/1000 (v/v) ratio for 66 hours.
The production was carried out either at a 10 L scale in a 22 L cellbag (GE Healthcare Bioscience, Pittsburgh, Pa.) or at a 20 L scale in a 50 L cellbag using WAVE-Bioreactor System 20/50 (GE Healthcare Bioscience). The infected cells were harvested by centrifugation at 2000 rpm for 20 min at 4° C. in a SORVALL® RC12BP centrifuge. The cell pellets was stored at −70° C. before protein was purified.
RIPK1 containing cell paste was resuspended in 50 mM Tris pH 7.5, 150 mM NaCl, 10 mM imidazole, 5% glycerol, 5 mM MgSO4, 1 mM TCEP, 25 U/ml Benzonase, and Complete Protease Inhibitor tablets (1/50 ml, Roche Diagnostics, Indianapolis, Ind.). […] The suspension was clarified by centrifugation at 136,000×g for 40 min, at 4° C. The lysate was decanted from the pellet and passed through a 5 ml NiNTA Superflow cartridge (Qiagen, Valencia, Calif.) using an AKTA Pure (GE Healthcare). Column was eluted with 10 CV linear gradient into 50 mM Tris 7.5, 150 mM NaCl, 500 mM imidazole, 5% glycerol, 1 mM TCEP. Peak fractions were pooled and loaded directly onto 5 ml GSTrap 4B column (GE Healthcare). Column was washed with 50 mM Tris 7.0, 150 mM NaCl, 5% glycerol, 1 mM DTT and eluted in 10 CV linear gradient into 50 mM Tris 8.0, 150 mM NaCl, 20 mM reduced glutathione, 5% glycerol, 1 mM DTT. Fractions identified by SDS-PAGE as containing RIPK1 were pooled and concentrated using 30 kDa MWCO spin concentrators (Amicon Ultra-15, Millipore, Billerica, Mass.) and loaded onto a HiLoad 26/600 Superdex 200 column (GE Healthcare) equilibrated in 25 mM Tris 7.5, 150 mM NaCl, 2 mM TCEP, 5% glycerol.
Protein was aliquoted and stored at −80° C.

[2] = test system: MLKL phosphorylation in HT29-L23 human colorectal adenocarcinoma cells; experiment: MLKL Phosphorylation High-Content Assay; assay type: cell-based; settings: Homo sapiens
Procedure: MLKL Phosphorylation High-Content Assay
Following six hours incubation at 37° C. […] MLKL phosporylation was detected using anti-MLKL (phospho S358) antibody (Abcam #ab187091) (1:1000 dilution in Blocking Buffer [PBS supplemented with 0.1% BSA]) with overnight incubation at 4° C. […] Following another three cycles of washes in PBS, the microplates were sealed, and cellular images were acquired in the Cellomics ArrayScan VTI high-content imager equipped with an X1 camera. […] The image sets were analyzed using the Compartmental Analysis Bioapplication software (Cellomics). The level of MLKL phosphorylation was quantified as MEAN CircRingAvgIntenRatio. […] The data were fitted using the 4-parameter logistic equation to calculate the IC50 and Ymax values.

[3] = x marks IC50 class 20-200 nM, read-out: RIPK1 HTRF binding 20-200 nM
[4] = x marks IC50 class 20-200 nM, read-out: pMLKL cell activity 20-200 nM
[5] = x marks IC50 class >200 nM, read-out: RIPK1 HTRF binding >200 nM
[6] = x marks IC50 class >200 nM, read-out: pMLKL cell activity >200 nM
[7] = x marks IC50 class <20 nM, read-out: RIPK1 HTRF binding <20 nM
[8] = x marks IC50 class <20 nM, read-out: pMLKL cell activity <20 nM

| Structure (SMILES) | IC50 [1, 3] | IC50 [2, 4] | IC50 [1, 5] | IC50 [2, 6] | also measured |
| --- | --- | --- | --- | --- | --- |
| COc1ncc(-c2ccn3nc(N)nc3c2)cc1C(=O)NC(C)c1cc(OC(F)(F)F)ccc1F (single isomer, unassigned) [Example 89-1, 5-{2-amino-[1,2,4]triazolo[1,5-a]pyridin-7-yl}-N-{1-[2-fluoro-5-(trifluoromethoxy)phenyl]ethyl}-2-methoxypyridine-3-carboxamide] | 20 to 200 nM | 20 to 200 nM | – | – | – |
| [2H]C([2H])([2H])Oc1ncc(-c2ccn3nc(N)nc3c2)cc1C(=O)NC(C)c1ccccc1OC(F)(F)F (single isomer, unassigned) [Example 95-1, 5-{2-amino-[1,2,4]triazolo[1,5-a]pyridin-7-yl}-2-(deutero)methoxy-N-{1-[2-(trifluoromethoxy)phenyl]ethyl}pyridine-3-carboxamide] | – | – | > 200 nM | > 200 nM | – |
| [2H]C([2H])([2H])Oc1ncc(-c2ccn3nc(N)nc3c2)cc1C(=O)NC(C)c1ccccc1OC(F)(F)F (single isomer, unassigned) [Example 95-2, 5-{2-amino-[1,2,4]triazolo[1,5-a]pyridin-7-yl}-2-(deutero)methoxy-N-{1-[2-(trifluoromethoxy)phenyl]ethyl}pyridine-3-carboxamide] | – | – | – | – | IC50 [1, 7]: < 20 nM; IC50 [2, 8]: < 20 nM |
| [2H]C([2H])([2H])Oc1nc(C)c(-c2ccn3nc(N)nc3c2)cc1C(=O)NC(C)c1cc(OC(F)(F)F)ccc1F (single isomer, unassigned) [Example 97-1, 5-{2-amino-[1,2,4]triazolo[1,5-a]pyridin-7-yl}-N-{1-[2-fluoro-5-(trifluoromethoxy)phenyl]ethyl}-2-(deutero)methoxy-6-methylpyridine-3-carboxamide] | 20 to 200 nM | 20 to 200 nM | – | – | – |
| [2H]C([2H])([2H])Oc1nc(C)c(-c2ccn3nc(N)nc3c2)cc1C(=O)NC(C)c1ccccc1OC(F)(F)F (single isomer, unassigned) [Example 98-1, 5-{2-amino-[1,2,4]triazolo[1,5-a]pyridin-7-yl}-2-(deutero)methoxy-6-methyl-N-{1-[2-(trifluoromethoxy)phenyl]ethyl}pyridine-3-carboxamide] | – | – | > 200 nM | > 200 nM | – |
| [2H]C([2H])([2H])Oc1nc(C)c(-c2ccn3nc(N)nc3c2)cc1C(=O)NC(C)c1ccccc1OC(F)(F)F (single isomer, unassigned) [Example 98-2, 5-{2-amino-[1,2,4]triazolo[1,5-a]pyridin-7-yl}-2-(deutero)methoxy-6-methyl-N-{1-[2-(trifluoromethoxy)phenyl]ethyl}pyridine-3-carboxamide] | – | – | – | – | IC50 [1, 7]: < 20 nM; IC50 [2, 8]: < 20 nM |
| Cc1ncc(-c2ccn3nc(N)nc3c2)cc1C(=O)NC(C)c1cc(C(F)(F)F)ccc1F (single isomer, unassigned) [Example 99-1, 5-{2-amino-[1,2,4]triazolo[1,5-a]pyridin-7-yl}-N-{1-[2-fluoro-5-(trifluoromethyl)phenyl]ethyl}-2-methylpyridine-3-carboxamide] | 20 to 200 nM | 20 to 200 nM | – | – | – |
| Nc1nc2cc(-c3cnc(Cl)c(C(=O)NCc4ccc(F)cc4OCC4CC4)c3)ccn2n1 [Example 1, 5-(2-Amino-[1,2,4]triazolo[1,5-a]pyridin-7-yl)-2-chloro-N-([2-(cyclopropylmethoxy)-4-fluorophenyl]methyl)pyridine-3-carboxamide] | – | – | > 200 nM | > 200 nM | – |
| [2H]C([2H])(NC(=O)c1cc(-c2ccn3nc(N)nc3c2)cnc1OC)c1ccccc1OC(F)(F)F [Example 2, 5-{2-Amino-[1,2,4]triazolo[1,5-a]pyridin-7-yl}-2-methoxy-N-{[2-(trifluoromethoxy)phenyl](^2H)methyl}pyridine-3-carboxamide] | 20 to 200 nM | 20 to 200 nM | – | – | – |
| COc1nc(C)c(-c2ccn3nc(N)nc3c2)cc1C(=O)NCc1ccccc1OCC1CC(=O)C1 [Example 3, 5-{2-Amino-[1,2,4]triazolo[1,5-a]pyridin-7-yl}-2-methoxy-6-methyl-N-({2-[(3-oxocyclobutyl)methoxy]phenyl}methyl)pyridine-3-carboxamide] | 20 to 200 nM | 20 to 200 nM | – | – | – |
